Test results from ChEMBL document CHEMBL3808315, “Discovery of Pyrazolopyridones as a Novel Class of Gyrase B Inhibitors Using Structure Guided Design” (ACS Med Chem Lett, 2016).
Values after ≈ are worked out from the molar mass of the structure shown.

Columns and labels:
[1] = molecular target: DNA gyrase subunit B (Staphylococcus aureus, UniProt P0A0K8); assay: Inhibition of Staphylococcus aureus DNA gyraseB ATPase activity using linear pBR322 DNA substrate incubated for 30 mins by fluorescence polarization assay
[2] = system: Staphylococcus aureus; assay: Antibacterial activity against methicillin-susceptible Staphylococcus aureus 42 incubated for 18 to 24 hrs by broth microdilution assay; assay type: functional
[3] = molecular target: DNA topoisomerase 4 subunit B (Staphylococcus aureus, UniProt P0C1S7); assay: Inhibition of Staphylococcus aureus DNA parE ATPase activity incubated for 30 mins by fluorescence polarization assay
[4] = system: Staphylococcus aureus; assay: Antibacterial activity against ciprofloxacin/methicillin-resistant Staphylococcus aureus 1721 incubated for 18 to 24 hrs by broth microdilution assay; assay type: functional
[5] = system: Streptococcus pneumoniae; assay: Antibacterial activity Streptococcus pneumoniae ATCC 6303 incubated for 18 to 24 hrs by broth microdilution assay; assay type: functional
[6] = system: Staphylococcus aureus; assay: Antibacterial activity against methicillin-resistant Staphylococcus aureus 1118 incubated for 18 to 24 hrs by broth microdilution assay; assay type: functional
[7] = system: Enterococcus faecium; assay: Antibacterial activity Enterococcus faecium ATCC 6569 incubated for 18 to 24 hrs by broth microdilution assay; assay type: functional

O=c1ccc2c(-c3cnc(-c4cccnc4)s3)n[nH]c2[nH]1
IC50 [1]: 0.27 µM | MIC [2]: > 32 µg/mL

Cc1cc(=O)[nH]c2[nH]nc(-c3cnc(-c4cccnc4)s3)c12
IC50 [1]: 3.25 µM

O=c1cc(-c2ccccc2)c2c(-c3cnc(-c4cccnc4)s3)n[nH]c2[nH]1
IC50 [1]: 1.32 µM

CCCn1c(=O)ccc2c(-c3cnc(-c4ccc(N(C)C)nc4)s3)n[nH]c21
IC50 [1]: 0.015 µM | MIC [2]: 0.5 µg/mL (≈ 1.31 µM)

CCCn1c(=O)ccc2c(-c3ncc(-c4cccnc4)s3)n[nH]c21
IC50 [1]: 0.009 µM | MIC [2]: 4 µg/mL (≈ 11.9 µM)

CCCn1c(=O)ccc2c(-c3nc(C(=O)OC)c(-c4cccnc4)s3)n[nH]c21
IC50 [1]: 0.006 µM | MIC [2]: 0.25 µg/mL (≈ 0.632 µM)

CCCn1c(=O)ccc2c(-c3nc(C(=O)N(C)C)c(-c4cccnc4)s3)n[nH]c21
IC50 [1]: 0.013 µM | MIC [2]: 4 µg/mL (≈ 9.79 µM)

CCCn1c(=O)ccc2c(-c3cnc(-c4ccc(C(C)C)nc4)s3)n[nH]c21
IC50 [1]: 0.023 µM | MIC [2]: 1 µg/mL (≈ 2.64 µM)

CCCn1c(=O)ccc2c(-c3cnc(-c4ccc(C(=O)NCCN(CC)CC)nc4)s3)n[nH]c21
IC50 [1]: < 0.008 µM | MIC [2]: 1 µg/mL (≈ 2.09 µM)

CCCn1c(=O)ccc2c(-c3cncs3)n[nH]c21
IC50 [1]: 0.279 µM | MIC [2]: > 32 µg/mL

Cn1c(=O)ccc2c(-c3cnc(-c4cccnc4)s3)n[nH]c21
IC50 [1]: 0.051 µM | MIC [2]: > 32 µg/mL

CCCn1c(=O)ccc2c(-c3cnc(-c4ccc(C(=O)OC)nc4)s3)n[nH]c21
IC50 [1]: 0.015 µM | MIC [2]: 0.5 µg/mL (≈ 1.26 µM)

O=c1ccc2c(-c3cnc(-c4cccnc4)s3)n[nH]c2n1CCO
IC50 [1]: 0.564 µM | MIC [2]: > 32 µg/mL

CCn1c(=O)c(C)cc2c(-c3cnc(-c4cccnc4)s3)n[nH]c21
IC50 [1]: 0.035 µM | MIC [2]: 2 µg/mL (≈ 5.93 µM)

CCCn1c(=O)ccc2c(-c3cnc(-c4ccc(C(=O)N(C)C)nc4)s3)n[nH]c21
IC50 [1]: 0.008 µM | MIC [2]: 2 µg/mL (≈ 4.9 µM)

CCn1c(=O)ccc2c(-c3cnc(-c4cccnc4)s3)n[nH]c21
IC50 [3]: 0.746 µM | MIC [4]: 4 µg/mL (≈ 12.4 µM) | MIC [5]: 4 µg/mL (≈ 12.4 µM) | IC50 [1]: 0.02 µM | MIC [2]: 2 µg/mL (≈ 6.18 µM) | MIC [6]: 2 µg/mL (≈ 6.18 µM) | MIC [7]: 4 µg/mL (≈ 12.4 µM)

C=CCn1c(=O)ccc2c(-c3cnc(-c4cccnc4)s3)n[nH]c21
IC50 [1]: 0.004 µM | MIC [2]: 0.25 µg/mL (≈ 0.745 µM)

CCCn1c(=O)ccc2c(-c3cnc(-c4ccc(CN5CCN(C)CC5)nc4)s3)n[nH]c21
IC50 [1]: 0.01 µM | MIC [2]: 4 µg/mL (≈ 8.9 µM)

CCCn1c(=O)ccc2c(-c3cnc(-c4ccc(CN(CC)CC)nc4)s3)n[nH]c21
IC50 [1]: 0.009 µM | MIC [2]: 4 µg/mL (≈ 9.47 µM)

CCCn1c(=O)ccc2c(-c3cnc(-c4ccc(CO)nc4)s3)n[nH]c21
IC50 [1]: < 0.008 µM | MIC [2]: 0.25 µg/mL (≈ 0.68 µM)

CCCn1c(=O)ccc2c(-c3cnc(-c4ccc(CN5CCOCC5)nc4)s3)n[nH]c21
IC50 [1]: < 0.008 µM | MIC [2]: 0.5 µg/mL (≈ 1.15 µM)

CCCn1c(=O)ccc2c(-c3cnc(-c4ccc(C)nc4)s3)n[nH]c21
IC50 [1]: < 0.008 µM | MIC [2]: 0.25 µg/mL (≈ 0.711 µM)

CCCn1c(=O)ccc2c(-c3cnc(-c4ccc(C(=O)NCCN5CCOCC5)nc4)s3)n[nH]c21
IC50 [1]: 0.013 µM | MIC [2]: 2 µg/mL (≈ 4.05 µM)

CCCn1c(=O)ccc2c(C3CCN(c4nc(C(=O)O)c(C)s4)CC3)n[nH]c21
IC50 [1]: 0.192 µM | MIC [2]: > 32 µg/mL

CCn1c(=O)c(CO)cc2c(-c3cnc(-c4cccnc4)s3)n[nH]c21
IC50 [1]: 0.202 µM | MIC [2]: > 32 µg/mL

CCCn1c(=O)ccc2c(-c3cnc(-c4ccc(N5CCN(C)CC5)nc4)s3)n[nH]c21
IC50 [1]: 0.008 µM | MIC [2]: 2 µg/mL (≈ 4.59 µM)

CCn1c(=O)c(C(=O)NC)cc2c(-c3cnc(-c4cccnc4)s3)n[nH]c21
IC50 [1]: 3.35 µM | MIC [2]: > 32 µg/mL

CCCn1c(=O)ccc2c(-c3cnc(-c4cccnc4)s3)n[nH]c21
IC50 [3]: 0.183 µM | MIC [4]: 0.06 µg/mL (≈ 0.178 µM) | MIC [5]: 0.25 µg/mL (≈ 0.741 µM) | IC50 [1]: 0.006 µM | MIC [2]: 0.06 µg/mL (≈ 0.178 µM) | MIC [6]: 0.06 µg/mL (≈ 0.178 µM) | MIC [7]: 0.125 µg/mL (≈ 0.37 µM)

COc1c(N2C[C@@H]3CCCN[C@@H]3C2)c(F)cc2c(=O)c(C(=O)O)cn(C3CC3)c12 [MOXIFLOXACIN]
MIC [2]: 0.06 µg/mL (≈ 0.149 µM)
